Measured values as given in patent publication US10377773B2, “Isothiazolopyrimidinones, pyrazolopyrimidinones, and pyrrolopyrimidinones as ubiquitin-specific protease 7 inhibitors” (FORMA Therapeutics, Inc., priority 2015, dated 2019).

Target: T1, USP7 (Homo sapiens, UniProt Q93009)
T1 construct: USP7, construct USP7 (208-1102) 6*His, Viva Biotech; initiator Met (N); TEV site (C); 6*His (C); purchased Viva Biotech
Experiment: USP7 Assay A and B (Ubiquitin-Rhodamine 110 assay)
Format: biochemical
Settings: Ub-Rh110 substrate 25 nM, read-out: USP7_IC50
Experimental: Each assay was performed in a final volume of 15 μL in assay buffer containing 20 mM Tris-HCl (pH 8.0, (1M Tris-HCl, pH 8.0 solution; Corning 46-031-CM)), 1 mM GSH (L-Glutathione reduced; Sigma #G4251), 0.03% BGG (0.22 μM filtered, Sigma, #G7516-25G), and 0.01% Triton X-100 (Sigma, #T9284-10L). Nanoliter quantities of either an 8-point or 10-point, 3-fold serial dilution in DMSO was pre-dispensed into assay plates (Perkin Elmer, ProxiPlate-384 F Plus, #6008269) for a final test concentration range of either 25 μM to 11 nM or 25 μM to 1.3 nM, respectively. The final concentration of the enzyme (USP7, construct USP7 (208-1102) 6*His, Viva Biotech) in the assay was 62.5 pM. Final substrate (Ub-Rh110; Ubiquitin-Rhodamine 110, R&D Systems #U-555) concentration was 25 nM with [Ub-Rh110]<<Km. 5 μL of 2× enzyme was added to the assay plates (pre-stamped with compound) and preincubated with USP7 for 30 min. 5 μL of 2×Ub-Rh110 was then added to assay plates. Plates were incubated stacked for 20 min at room temperature before 5 μL of stop solution (final concentration of 10 mM citric acid in assay buffer (Sigma, #251275-500G)). Fluorescence was read on the Envision (Excitation at 485 nm and Emission at 535 nm; Perkin Elmer) or on the PheraSTAR (Excitation at 485 nm and Emission at 535 nm; BMG Labtech).
Each assay was performed in a final volume of 20 μL in assay buffer containing 20 mM Tris-HCl (pH 8.0, (1M Tris-HCl, pH 8.0 solution; Corning 46-031-CM)), 2 mM CaCl2 (1M calcium chloride solution; Sigma #21114), 1 mM GSH (L-Glutathione reduced; Sigma #G4251), 0.01% Prionex (0.22 μM filtered, Sigma #G-0411), and 0.01% Triton X-100. Stock compound solutions were stored at −20° C. as 10 mM in DMSO. Up to 1 month prior to the assay, 2 mM test compounds were pre-dispensed into assay plates (Black, low volume; Corning #3820) and frozen at −20° C. Prestamped assay plates were allowed to warm to room temperature on the day of the assay. For the screen, 100 nL of 2 mM was pre-dispensed for a final screening concentration of 10 μM (DMSO(fc)=0.5%). For follow-up studies, 250 nL of an 8-point, 3-fold serial dilution in DMSO was pre-dispensed into assay plates for a final test concentration of 25 μM-11 nM (1.25c % DMSO final concentration). Unless otherwise indicated, all follow-up assays were run on triplecate plates. Enzyme (USP7, construct Met (208-1102)-TEV-6*His; Viva Q93009-1) concentration and incubation times were optimized for the maximal signal-to-background while maintaining initial velocity conditions at a fixed substrate concentration. The final concentration of the enzyme in the assay was either 75 pM or 250 pM. Final substrate (Ub-Rh110; Ubiquitin-Rhodamine 110, R&D Systems (biotechne)#U-555) concentration was 25 nM with [Ub-Rh110]<<Km. Compounds were either not preincubated or preincubated with USP7 between 30 to 120 min prior to the addition of 10 μL of 2×Ub-Rh110 to compound plates. Plates were incubated stacked for either 23 or 45 min at room temperature before fluorescence was read on the Envision (Excitation at 485 nm and Emission at 535 nm; Perkin Elmer) or on the PheraSTAR (Excitation at 485 nm and Emission at 535 nm; BMG Labtech).
Data from USP7 Assays A and B were reported as percent inhibition (inh) compared with control wells based on the following equation: % inh=1−((FLU−AveLow)/(AveHigh−AveLow)) where FLU=measured Fluorescence, AveLow=average Fluorescence of no enzyme control (n=16), and AveHigh=average Fluorescence of DMSO control (n=16). IC50 values were determined by curve fitting of the standard 4 parameter logistic fitting algorithm included in the Activity Base software package: IDBS XE Designer Model205. Data was fitted using the Levenburg Marquardt algorithm.

T1 sequence (Q93009 208-1102): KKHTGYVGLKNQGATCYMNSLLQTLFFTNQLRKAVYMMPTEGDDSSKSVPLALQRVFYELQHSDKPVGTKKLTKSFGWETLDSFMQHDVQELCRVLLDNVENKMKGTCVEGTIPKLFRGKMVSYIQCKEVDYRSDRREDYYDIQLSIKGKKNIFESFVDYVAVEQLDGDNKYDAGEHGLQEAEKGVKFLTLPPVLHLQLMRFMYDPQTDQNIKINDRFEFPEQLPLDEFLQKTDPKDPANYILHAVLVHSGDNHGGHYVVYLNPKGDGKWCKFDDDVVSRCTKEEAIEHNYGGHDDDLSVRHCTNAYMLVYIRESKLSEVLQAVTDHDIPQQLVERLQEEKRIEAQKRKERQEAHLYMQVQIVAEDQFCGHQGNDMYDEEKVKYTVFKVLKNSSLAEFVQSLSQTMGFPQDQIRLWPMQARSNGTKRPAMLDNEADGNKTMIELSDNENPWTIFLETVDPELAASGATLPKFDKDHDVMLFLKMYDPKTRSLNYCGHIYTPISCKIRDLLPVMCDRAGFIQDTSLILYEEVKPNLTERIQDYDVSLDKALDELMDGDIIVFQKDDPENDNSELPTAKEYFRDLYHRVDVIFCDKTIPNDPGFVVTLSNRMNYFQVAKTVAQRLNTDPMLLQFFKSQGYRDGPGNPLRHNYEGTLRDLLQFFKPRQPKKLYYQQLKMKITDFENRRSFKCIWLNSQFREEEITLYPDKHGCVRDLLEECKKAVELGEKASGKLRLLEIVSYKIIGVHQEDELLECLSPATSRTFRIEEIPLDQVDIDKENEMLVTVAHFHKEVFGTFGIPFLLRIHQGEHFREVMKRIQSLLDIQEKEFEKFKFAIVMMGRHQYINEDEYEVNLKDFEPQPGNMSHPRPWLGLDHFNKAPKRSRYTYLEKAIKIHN

| Compound | IC50 [µM] |
| --- | --- |
| 3-(4-fluoro-3-methoxyphenyl)-6-{[1-(4-fluorobenzoyl)-4-hydroxypiperidin-4-yl]methyl}-6H,7H-[1,2]thiazolo[4,5-d]pyrimidin-7-one [Compound I-9] | > 10 |
| O=C(c1ccc(F)cc1)N1CCC(O)(Cn2cnc3c(-c4ccccc4)nsc3c2=O)CC1 [Compound I-1, 6-{[1-(4-fluorobenzoyl)-4-hydroxypiperidin-4-yl]methyl}-3-phenyl-6H,7H-[1,2]thiazolo[4,5-d]pyrimidin-7-one] | > 10 |
| COc1ccc(-c2nsc3c(=O)n(CC4(O)CCN(C(=O)c5ccc(F)cc5)CC4)cnc23)cc1 [Compound I-2, 6-{[1-(4-fluorobenzoyl)-4-hydroxypiperidin-4-yl]methyl}-3-(4-methoxyphenyl)-6H,7H-[1,2]thiazolo[4,5-d]pyrimidin-7-one] | 1 to 10 |
| COc1ccc(C(=O)N2CCC(O)(Cn3cnc4c(-c5ccc(F)cc5)nsc4c3=O)CC2)cc1 [Compound I-3, 3-(4-fluorophenyl)-6-{[4-hydroxy-1-(4-methoxybenzoyl)piperidin-4-yl]methyl}-6H,7H-[1,2]thiazolo[4,5-d]pyrimidin-7-one] | 1 to 10 |
| O=C(c1ccc(F)cc1)N1CCC(O)(Cn2cnc3c(-c4cccc(CO)c4)nsc3c2=O)CC1 [Compound I-4, 6-{[1-(4-fluorobenzoyl)-4-hydroxypiperidin-4-yl]methyl}-3-[3-(hydroxymethyl)phenyl]-6H,7H-[1,2]thiazolo[4,5-d]pyrimidin-7-one] | 1 to 10 |
| O=C(c1ccc(F)cc1)N1CCC(O)(Cn2cnc3c(-c4ccc(F)cc4)n[nH]c3c2=O)CC1 [Compound I-5, 6-{[1-(4-fluorobenzoyl)-4-hydroxypiperidin-4-yl]methyl}-3-(4-fluorophenyl)-1H,6H,7H-pyrazolo[4,3-d]pyrimidin-7-one] | 0.5 to 1 |
| COc1ccc(-c2n[nH]c3c(=O)n(CC4(O)CCN(C(=O)c5ccc(F)cc5)CC4)cnc23)cc1 [Compound I-6, 6-{[1-(4-fluorobenzoyl)-4-hydroxypiperidin-4-yl]methyl}-3-(4-methoxyphenyl)-1H, 6H,7H-pyrazolo[4,3-d]pyrimidin-7-one] | < 0.5 |
| COc1ccc(C(=O)N2CCC(O)(Cn3cnc4c(-c5ccccc5)n[nH]c4c3=O)CC2)cc1 [Compound I-7, 6-{[4-hydroxy-1-(4-methoxybenzoyl)piperidin-4-yl]methyl}-3-phenyl-1H,6H,7H-pyrazolo[4,3-d]pyrimidin-7-one] | 1 to 10 |
| COc1ccc(C(=O)N2CCC(O)(Cn3cnc4c(-c5ccccc5)nsc4c3=O)CC2)cc1 [Compound I-8, 6-{[4-hydroxy-1-(4-methoxybenzoyl)piperidin-4-yl]methyl}-3-phenyl-6H,7H-[1,2]thiazolo[4,5-d]pyrimidin-7-one] | 1 to 10 |
| CN1CCN(c2ccc(C(=O)N3CCC(O)(Cn4cnc5c(-c6ccc(F)cc6)nsc5c4=O)CC3)nc2)CC1 [Compound I-10, 3-(4-fluorophenyl)-6-({4-hydroxy-1-[5-(4-methylpiperazin-1-yl)pyridine-2-carbonyl]piperidin-4-yl}methyl)-6H,7H-[1,2]thiazolo[4,5-d]pyrimidin-7-one] | > 10 |
| CC(CC(=O)N1CCC(O)(Cn2cnc3c(-c4ccccc4)nsc3c2=O)CC1)c1ccccc1 (stereo not shown) [Compound I-11, 6-{[4-hydroxy-1-(3-phenylbutanoyl)piperidin-4-yl]methyl}-3-phenyl-6H,7H-[1,2]thiazolo[4,5-d]pyrimidin-7-one] | 0.5 to 1 |
| C[C@@H](CC(=O)N1CCC(O)(Cn2cnc3c(-c4ccccc4)nsc3c2=O)CC1)c1ccccc1 [Compound I-12, 6-({4-hydroxy-1-[(3 S)-3-phenylbutanoyl]piperidin-4-yl}methyl)-3-phenyl-6H,7H-[1,2]thiazolo[4,5-d]pyrimidin-7-one] | < 0.5 |
| C[C@H](CC(=O)N1CCC(O)(Cn2cnc3c(-c4ccccc4)nsc3c2=O)CC1)c1ccccc1 [Compound I-13, 6-({4-hydroxy-1-[(3R)-3-phenylbutanoyl]piperidin-4-yl}methyl)-3-phenyl-6H,7H-[1,2]thiazolo[4,5-d]pyrimidin-7-one] | 1 to 10 |
| CC(CC(=O)N1CCC(O)(Cn2cnc3c(-c4ccccc4)nsc3c2=O)CC1)n1cccn1 (stereo not shown) [Compound I-14, 6-({4-hydroxy-1-[3-(1H-pyrazol-1-yl)butanoyl]piperidin-4-yl}methyl)-3-phenyl-6H,7H-[1,2]thiazolo[4,5-d]pyrimidin-7-one] | 1 to 10 |
| C[C@@H](CC(=O)N1CCC(O)(Cn2cnc3c(-c4ccccc4)nsc3c2=O)CC1)n1cccn1 [Compound I-15, 6-({4-hydroxy-1-[(3 S)-3-(1H-pyrazol-1-yl)butanoyl]piperidin-4-yl}methyl)-3-phenyl-6H,7H-[1,2]thiazolo[4,5-d]pyrimidin-7-one] | 1 to 10 |
| C[C@H](CC(=O)N1CCC(O)(Cn2cnc3c(-c4ccccc4)nsc3c2=O)CC1)n1cccn1 [Compound I-16, 6-({4-hydroxy-1-[(3R)-3-(1H-pyrazol-1-yl)butanoyl]piperidin-4-yl}methyl)-3-phenyl-6H,7H-[1,2]thiazolo[4,5-d]pyrimidin-7-one] | 1 to 10 |
| O=C(CC(c1ccccc1)C(F)F)N1CCC(O)(Cn2cnc3c(-c4ccccc4)nsc3c2=O)CC1 (stereo not shown) [Compound I-17, 6-{[1-(4,4-difluoro-3-phenylbutanoyl)-4-hydroxypiperidin-4-yl]methyl}-3-phenyl-6H,7H-[1,2]thiazolo[4,5-d]pyrimidin-7-one] | 1 to 10 |
| O=C(C[C@H](c1ccccc1)C(F)F)N1CCC(O)(Cn2cnc3c(-c4ccccc4)nsc3c2=O)CC1 [Compound I-18, 6-({1-[(3R)-4,4-difluoro-3-phenylbutanoyl]-4-hydroxypiperidin-4-yl}methyl)-3-phenyl-6H,7H-[1,2]thiazolo[4,5-d]pyrimidin-7-one] | > 10 |
| O=C(C[C@@H](c1ccccc1)C(F)F)N1CCC(O)(Cn2cnc3c(-c4ccccc4)nsc3c2=O)CC1 [Compound I-19, 6-({1-[(3 S)-4,4-difluoro-3-phenylbutanoyl]-4-hydroxypiperidin-4-yl}methyl)-3-phenyl-6H, 7H-[1,2]thiazolo[4,5-d]pyrimidin-7-one] | 0.5 to 1 |
| COc1ccc(C(=O)N2CCC(O)(Cn3cnc4c(-c5ccc(F)cc5)n[nH]c4c3=O)CC2)cc1 [Compound I-20, 3-(4-fluorophenyl)-6-{[4-hydroxy-1-(4-methoxybenzoyl)piperidin-4-yl]methyl}-1H, 6H,7H-pyrazolo[4,3-d]pyrimidin-7-one] | 1 to 10 |
| COc1ccc(C(=O)N2CCC(O)(Cn3cnc4c(-c5ccc(OC)cc5)n[nH]c4c3=O)CC2)cc1 [Compound I-21, 6-{[4-hydroxy-1-(4-methoxybenzoyl)piperidin-4-yl]methyl}-3-(4-methoxyphenyl)-1H,6H,7H-pyrazolo[4,3-d]pyrimidin-7-one] | 0.5 to 1 |
| CN(C)C(=O)N1CCC(O)(Cn2cnc3c(-c4ccc(F)c(N5CCNCC5)c4)nsc3c2=O)CC1 [Compound I-22, 4-({3-[4-fluoro-3-(piperazin-1-yl)phenyl]-7-oxo-6H,7H-[1,2]thiazolo[4,5-d]pyrimidin-6-yl}methyl)-4-hydroxy-N,N-dimethylpiperidine-1-carboxamide] | 1 to 10 |
